Assay results reported in patent publication US6737383B1, “Herbicidal oxadiazolidines” (priority 1999, dated 2004).

Columns and labels:
soybean = test: Test B pre/postemergence soybean; assay type: in vivo, Glycine max
Method in brief: (§1)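 Herbicidal effect was estimated by eye on a ten-point control scale after plants spent twelve to sixteen days in a greenhouse following soil or foliar treatment. Foliar sprays targeted plants at one to four leaves; all doses were formulated in a non-phytotoxic solvent with surfactant.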

sugar beet = test: Test B pre/postemergence sugar beet; assay type: in vivo, Beta vulgaris
Method in brief: as §1

velvetleaf = test: Test B pre/postemergence velvetleaf; assay type: in vivo, Abutilon theophrasti
Method in brief: as §1

cocklebur = test: Test B pre/postemergence cocklebur; assay type: in vivo, Xanthium strumarium
Method in brief: as §1

pigweed = test: Test B pre/postemergence pigweed; assay type: in vivo, Amaranthus retroflexus
Method in brief: as §1

crabgrass = test: Test B pre/postemergence crabgrass; assay type: in vivo, Digitaria sanguinalis
Method in brief: as §1

corn = test: Test B pre/postemergence corn; assay type: in vivo, Zea mays
Method in brief: as §1

purple nutsedge = test: Test B pre/postemergence purple nutsedge; assay type: in vivo, Cyperus rotundus
Method in brief: as §1

rape = test: Test B pre/postemergence rape; assay type: in vivo, Brassica napus
Method in brief: as §1

giant foxtail = test: Test B pre/postemergence giant foxtail; assay type: in vivo, Setaria faberii
Method in brief: as §1

bedstraw = test: Test B pre/postemergence bedstraw; assay type: in vivo, Galium aparine
Method in brief: as §1

morningglory = test: Test B pre/postemergence morningglory; assay type: in vivo, Ipomoea hederacea
Method in brief: as §1

surinam grass = test: Test B pre/postemergence surinam grass; assay type: in vivo, Brachiaria decumbens
Method in brief: as §1

wild oat = test: Test B pre/postemergence wild oat; assay type: in vivo, Avena fatua
Method in brief: as §1

wheat = test: Test B pre/postemergence wheat; assay type: in vivo, Triticum aestivum
Method in brief: as §1

blackgrass = test: Test B pre/postemergence blackgrass; assay type: in vivo, Alopecurus myosuroides
Method in brief: as §1

[1] = Preemergence, Rate 62 g/ha, scale of 0 to 10 where 0 is no effect and 10 is complete control
[2] = Preemergence, Rate 125 g/ha, 0 is no effect, 10 is complete control
[3] = Preemergence, Rate 250 g/ha, scale 0 to 10, 0 is no effect, 10 is complete control
[4] = Preemergence, Rate 500 g/ha, scale 0 to 10 (0 no effect, 10 complete control)
[5] = Rate 62 g/ha, Postemergence, scale of 0 to 10 where 0 is no effect and 10 is complete control
[6] = Rate 125 g/ha, Postemergence, scale 0 to 10
[7] = Rate 500 g/ha, Postemergence, scale 0 to 10

For `CC(C)N(C(=O)n1oc(=O)n([C@H](C)c2ccccc2)c1=O)c1ccc(F)cc1` [Compound 179], the “Soybean plant response rating” value (soybean; [1]) was 0, the “Soybean plant response rating (0 to 10 scale)” value (soybean; [2]) was 0 and the “Soybean plant response rating” value (soybean; [3]) was 0. For the same compound, the “Soybean plant response rating” value (soybean; [4]) was 0, the “Soybean plant response rating” value (soybean; [5]) was 1 and the “Soybean plant response rating” value (soybean; [6]) was 1. The “Plant response rating (0 to 10; 0 is no effect, 10 is complete control), Soybean” value (soybean; Rate 250 g/ha, Postemergence) was 1, the “Soybean plant response rating” value (soybean; [7]) was 1 and the “Sugarbeets plant response rating” value (sugar beet; [1]) was 0. The “Sugarbeets plant response rating (0 to 10 scale)” value (sugar beet; [2]) was 0, the “Sugarbeets plant response rating” value (sugar beet; [3]) was 0 and the “Sugarbeets plant response rating” value (sugar beet; [4]) was 0. For the same compound, the “Sugarbeets plant response rating” value (sugar beet; [5]) was 0, the “Sugarbeets plant response rating” value (sugar beet; [6]) was 0 and the “Plant response rating (0 to 10; 0 is no effect, 10 is complete control), Sugarbeets” value (sugar beet; Rate 250 g/ha, Postemergence) was 2. The “Sugarbeets plant response rating” value (sugar beet; [7]) was 6, the “Velvetleaf plant response rating” value (velvetleaf; [1]) was 0 and the “Velvetleaf plant response rating (0 to 10 scale)” value (velvetleaf; [2]) was 0. For the same compound, the “Velvetleaf plant response rating” value (velvetleaf; [3]) was 0, the “Velvetleaf plant response rating” value (velvetleaf; [4]) was 5 and the “Velvetleaf plant response rating” value (velvetleaf; [6]) was 0. The “Plant response rating (0 to 10; 0 is no effect, 10 is complete control), Velvetleaf” value (velvetleaf; Rate 250 g/ha, Postemergence) was 0, the “Velvetleaf plant response rating” value (velvetleaf; [7]) was 3 and the “Cocklebur plant response rating” value (cocklebur; [1]) was 0. For the same compound, the “Cocklebur plant response rating (0 to 10 scale)” value (cocklebur; [2]) was 0, the “Cocklebur plant response rating” value (cocklebur; [3]) was 0 and the “Cocklebur plant response rating” value (cocklebur; [4]) was 0. For the same compound, the “Cocklebur plant response rating” value (cocklebur; [5]) was 0, the “Cocklebur plant response rating” value (cocklebur; [6]) was 0 and the “Plant response rating (0 to 10; 0 is no effect, 10 is complete control), Cocklebur” value (cocklebur; Rate 250 g/ha, Postemergence) was 0. The “Cocklebur plant response rating” value (cocklebur; [7]) was 1, the “Redroot pigweed plant response rating” value (pigweed; [1]) was 7 and the “Redroot pigweed plant response rating (0 to 10 scale)” value (pigweed; [2]) was 7. For the same compound, the “Redroot pigweed plant response rating” value (pigweed; [3]) was 7, the “Redroot pigweed plant response rating” value (pigweed; [4]) was 10 and the “Redroot pigweed plant response rating” value (pigweed; [5]) was 0. For the same compound, the “Redroot pigweed plant response rating” value (pigweed; [6]) was 0, the “Plant response rating (0 to 10; 0 is no effect, 10 is complete control), Redroot pigweed” value (pigweed; Rate 250 g/ha, Postemergence) was 4 and the “Redroot pigweed plant response rating” value (pigweed; [7]) was 8. For the same compound, the “Crabgrass plant response rating” value (crabgrass; [1]) was 6, the “Crabgrass plant response rating (0 to 10 scale)” value (crabgrass; [2]) was 7 and the “Crabgrass plant response rating” value (crabgrass; [3]) was 9. For the same compound, the “Crabgrass plant response rating” value (crabgrass; [4]) was 9, the “Crabgrass plant response rating” value (crabgrass; [5]) was 0 and the “Crabgrass plant response rating” value (crabgrass; [6]) was 0. The “Plant response rating (0 to 10; 0 is no effect, 10 is complete control), Crabgrass” value (crabgrass; Rate 250 g/ha, Postemergence) was 2, the “Crabgrass plant response rating” value (crabgrass; [7]) was 9 and the “Corn plant response rating” value (corn; [1]) was 0. The “Corn plant response rating (0 to 10 scale)” value (corn; [2]) was 0, the “Corn plant response rating” value (corn; [3]) was 0 and the “Corn plant response rating” value (corn; [4]) was 0. The “Corn plant response rating” value (corn; [5]) was 0, the “Corn plant response rating” value (corn; [6]) was 0 and the “Plant response rating (0 to 10; 0 is no effect, 10 is complete control), Corn” value (corn; Rate 250 g/ha, Postemergence) was 0. The “Corn plant response rating” value (corn; [7]) was 0, the “Nutsedge plant response rating” value (purple nutsedge; [1]) was 0 and the “Nutsedge plant response rating (0 to 10 scale)” value (purple nutsedge; [2]) was 0. For the same compound, the “Nutsedge plant response rating” value (purple nutsedge; [3]) was 0, the “Nutsedge plant response rating” value (purple nutsedge; [4]) was 10 and the “Nutsedge plant response rating” value (purple nutsedge; [5]) was 0. For the same compound, the “Nutsedge plant response rating” value (purple nutsedge; [6]) was 0, the “Plant response rating (0 to 10; 0 is no effect, 10 is complete control), Nutsedge” value (purple nutsedge; Rate 250 g/ha, Postemergence) was 0 and the “Nutsedge plant response rating” value (purple nutsedge; [7]) was 0. For the same compound, the “Rape plant response rating” value (rape; [1]) was 0, the “Rape plant response rating (0 to 10 scale)” value (rape; [2]) was 0 and the “Rape plant response rating” value (rape; [3]) was 2. For the same compound, the “Rape plant response rating” value (rape; [4]) was 4, the “Rape plant response rating” value (rape; [5]) was 0 and the “Rape plant response rating” value (rape; [6]) was 0. For the same compound, the “Plant response rating (0 to 10; 0 is no effect, 10 is complete control), Rape” value (rape; Rate 250 g/ha, Postemergence) was 0, the “Rape plant response rating” value (rape; [7]) was 2 and the “Giant foxtail plant response rating” value (giant foxtail; [1]) was 6. The “Giant foxtail plant response rating (0 to 10 scale)” value (giant foxtail; [2]) was 9, the “Giant foxtail plant response rating” value (giant foxtail; [3]) was 10 and the “Giant foxtail plant response rating” value (giant foxtail; [4]) was 10. The “Giant foxtail plant response rating” value (giant foxtail; [5]) was 0, the “Giant foxtail plant response rating” value (giant foxtail; [6]) was 0 and the “Plant response rating (0 to 10; 0 is no effect, 10 is complete control), Giant foxtail” value (giant foxtail; Rate 250 g/ha, Postemergence) was 0. The “Giant foxtail plant response rating” value (giant foxtail; [7]) was 4, the “Bedstraw plant response rating” value (bedstraw; [1]) was 0 and the “Bedstraw plant response rating (0 to 10 scale)” value (bedstraw; [2]) was 0. The “Bedstraw plant response rating” value (bedstraw; [3]) was 0, the “Bedstraw plant response rating” value (bedstraw; [4]) was 0 and the “Bedstraw plant response rating” value (bedstraw; [5]) was 0. For the same compound, the “Bedstraw plant response rating” value (bedstraw; [6]) was 5, the “Plant response rating (0 to 10; 0 is no effect, 10 is complete control), Bedstraw” value (bedstraw; Rate 250 g/ha, Postemergence) was 5 and the “Bedstraw plant response rating” value (bedstraw; [7]) was 10. The “Morningglory plant response rating” value (morningglory; [1]) was 0, the “Morningglory plant response rating (0 to 10 scale)” value (morningglory; [2]) was 0 and the “Morningglory plant response rating” value (morningglory; [3]) was 0. The “Morningglory plant response rating” value (morningglory; [4]) was 0, the “Morningglory plant response rating” value (morningglory; [5]) was 4 and the “Morningglory plant response rating” value (morningglory; [6]) was 5. For the same compound, the “Plant response rating (0 to 10; 0 is no effect, 10 is complete control), Morningglory” value (morningglory; Rate 250 g/ha, Postemergence) was 5, the “Morningglory plant response rating” value (morningglory; [7]) was 5 and the “B. signalgrass plant response rating” value (surinam grass; [1]) was 7. The “B. signalgrass plant response rating (0 to 10 scale)” value (surinam grass; [2]) was 8, the “B. signalgrass plant response rating” value (surinam grass; [4]) was 9 and the “B. signalgrass plant response rating” value (surinam grass; [5]) was 0. For the same compound, the “B. signalgrass plant response rating” value (surinam grass; Rate 125 g/ha, Postemergence, scale 0 (no effect) to 10 (complete control)) was 0, the “Plant response rating, B. signalgrass” value (surinam grass; Rate 250 g/ha, Postemergence, scale 0 to 10, 0 is no effect, 10 is complete control) was 0 and the “B. signalgrass plant response rating” value (surinam grass; Rate 500 g/ha, Postemergence, scale 0 to 10, 0 no effect, 10 complete control) was 0. The “Wild oats plant response rating” value (wild oat; [1]) was 0, the “Wild oats plant response rating (0 to 10 scale)” value (wild oat; [2]) was 0 and the “Wild oats plant response rating” value (wild oat; [3]) was 0. The “Wild oats plant response rating” value (wild oat; [4]) was 3, the “Wild oats plant response rating” value (wild oat; [6]) was 0 and the “Plant response rating (0 to 10; 0 is no effect, 10 is complete control), Wild oats” value (wild oat; Rate 250 g/ha, Postemergence) was 0. The “Wild oats plant response rating” value (wild oat; [7]) was 2, the “Wheat plant response rating” value (wheat; [1]) was 0 and the “Wheat plant response rating (0 to 10 scale)” value (wheat; [2]) was 0. For the same compound, the “Wheat plant response rating” value (wheat; [3]) was 0, the “Wheat plant response rating” value (wheat; [4]) was 2 and the “Wheat plant response rating” value (wheat; [6]) was 0. The “Plant response rating (0 to 10; 0 is no effect, 10 is complete control), Wheat” value (wheat; Rate 250 g/ha, Postemergence) was 0, the “Wheat plant response rating” value (wheat; [7]) was 0 and the “Blackgrass plant response rating” value (blackgrass; [1]) was 0. The “Blackgrass plant response rating (0 to 10 scale)” value (blackgrass; [2]) was 0, the “Blackgrass plant response rating” value (blackgrass; [3]) was 2 and the “Blackgrass plant response rating” value (blackgrass; [4]) was 2. For the same compound, the “Blackgrass plant response rating” value (blackgrass; [5]) was 0, the “Blackgrass plant response rating” value (blackgrass; [6]) was 2 and the “Plant response rating (0 to 10; 0 is no effect, 10 is complete control), Blackgrass” value (blackgrass; Rate 250 g/ha, Postemergence) was 4. For the same compound, the “Blackgrass plant response rating” value (blackgrass; [7]) was 6.
